Results as given in ChEMBL document CHEMBL4665849, “Synthesis and biological evaluation of imidazoline derivatives as potential CNS and CVS agents” (Bioorg Med Chem Lett, 2020).
Calls of active or inactive are those of the source. The rule behind the calls is not given here.

Tests used:
[1] = Toxicity in mouse; type: organism-based; settings: in vivo, read-out: ALD50
Mus musculus [2] = experiment: Hypotensive activity in mouse assessed as decrease in delayed blood pressure at 2.5 mg/kg; type: functional
Mus musculus [3] = experiment: Analgesic activity in mouse assessed as maximum change in tail flick latency time at 10 mg/kg (reference value: 0.7 secs); type: functional
Mus musculus [4] = experiment: Hypotensive activity in mouse assessed as decrease in heart rate at 2.5 mg/kg; type: functional
Mus musculus [5] = experiment: Modulation of cardiovascular activity in mouse assessed as inhibition of carotid occlusion-induced pressure response at 2.5 mg/kg; type: functional, organism-based
Mus musculus [6] = experiment: Analgesic activity in mouse assessed as time duration at which maximum change in tail flick latency occurs at 10 mg/kg (reference value: 60 mins); type: functional
Mus musculus [7] = experiment: Hypotensive activity in mouse assessed as decrease in immediate blood pressure at 2.5 mg/kg; type: functional
Mus musculus [8] = experiment: Antiaggressive activity in mouse assessed as reduction in foot shock induced fighting behavior by measuring fighting count at 10 mg/kg, ip (reference value: 6.6 to 24.3 counts); type: functional
Mus musculus [9] = experiment: Antidepressant activity in mouse assessed as total mean swimming time time at 5 mg/kg, ip (reference value: 2.08 to 3.12 min); type: functional
Mus musculus [10] = experiment: Modulation of cardiovascular activity in mouse assessed as potentiation of norepinephrine induced pressure response at 2.5 mg/kg; type: functional, organism-based
Mus musculus [11] = experiment: Modulation of cardiovascular activity in mouse assessed as inhibition of norepinephrine induced pressure response at 2.5 mg/kg; type: functional, organism-based
Mus musculus [12] = organism: Mus musculus; settings: dose 10.0 mg/kg
Description: Modulation of cardiovascular activity in mouse assessed as inhibition of norepinephrine induced pressure response at 10 mg/kg

Mus musculus [13] = organism: Mus musculus; settings: dose 10.0 mg/kg; remark: listed apart in the source
Description: Modulation of cardiovascular activity in mouse assessed as inhibition of carotid occlusion-induced pressure response at 10 mg/kg

SMILES: CC1=N/C(=C\c2ccccc2)C(=O)N1c1ccc(OCC2CO2)cc1 (centres undefined)
- LD50 [1]: > 500 mg/kg
- Activity (Mus musculus [2]): 45 mmHg
- Time (Mus musculus [3]): 8.5 s
- Activity (Mus musculus [4]): 21 bpm
- inhibition (Mus musculus [5]): Active
- Time (Mus musculus [6]): 60 min
- Activity (Mus musculus [7]): 25 mmHg
- Activity (Mus musculus [8]): 6.3 Counts
- Time (Mus musculus [9]): 1.68 min
- Activity (Mus musculus [10]): Active

SMILES: CC1=N/C(=C\c2ccc(N(C)C)cc2)C(=O)N1c1ccc(OCC(O)CNc2ccc(Cl)cc2)cc1 (centres undefined)
- LD50 [1]: > 500 mg/kg
- Activity (Mus musculus [2]): 30 mmHg
- Time (Mus musculus [3]): 0.9 s
- Activity (Mus musculus [4]): 21 bpm
- inhibition (Mus musculus [5]): Active
- Time (Mus musculus [6]): 30 min
- Activity (Mus musculus [7]): 15 mmHg
- Activity (Mus musculus [8]): 4.8 Counts
- Time (Mus musculus [9]): 0.84 min
- Activity (Mus musculus [10]): Active

SMILES: CC1=N/C(=C\c2ccc(N(C)C)cc2)C(=O)O1
- LD50 [1]: > 500 mg/kg
- Activity (Mus musculus [2]): 15 mmHg
- Time (Mus musculus [3]): 1.8 s
- Activity (Mus musculus [4]): inactive
- inhibition (Mus musculus [5]): Active
- Time (Mus musculus [6]): 60 min
- Activity (Mus musculus [7]): inactive
- Activity (Mus musculus [8]): 7.3 Counts
- Time (Mus musculus [9]): 1.5 min
- Activity (Mus musculus [10]): Active

SMILES: CC1=N/C(=C\c2ccoc2)C(=O)N1c1ccc(O)cc1
- LD50 [1]: > 500 mg/kg
- Activity (Mus musculus [2]): 20 mmHg
- Time (Mus musculus [3]): 1.3 s
- Activity (Mus musculus [4]): 18 bpm
- inhibition (Mus musculus [5]): inactive
- Time (Mus musculus [6]): 60 min
- inhibition (Mus musculus [11]): inactive
- Activity (Mus musculus [7]): 20 mmHg
- Activity (Mus musculus [8]): 4.6 Counts
- Time (Mus musculus [9]): 2.52 min
- Activity (Mus musculus [10]): inactive

SMILES: Clc1cccc(Cl)c1NC1=NCCN1
- inhibition (Mus musculus [12]): Active
- inhibition (Mus musculus [13]): Active

SMILES: CC1=N/C(=C\c2ccccc2)C(=O)N1c1ccc(OCC(O)CNc2ccc(Cl)cc2)cc1 (centres undefined)
- LD50 [1]: > 200 mg/kg
- Activity (Mus musculus [2]): 17 mmHg
- Time (Mus musculus [3]): 4.5 s
- Activity (Mus musculus [4]): 6 bpm
- inhibition (Mus musculus [5]): Active
- Time (Mus musculus [6]): 60 min
- Activity (Mus musculus [7]): 50 mmHg
- Activity (Mus musculus [8]): 11.3 Counts
- Time (Mus musculus [9]): 1.6 min
- Activity (Mus musculus [10]): Active

SMILES: CC1=N/C(=C\c2ccccc2)C(=O)N1c1ccc(O)cc1
- LD50 [1]: > 200 mg/kg
- Activity (Mus musculus [2]): 70 mmHg
- Time (Mus musculus [3]): 6.4 s
- Activity (Mus musculus [4]): 12 bpm
- inhibition (Mus musculus [5]): Active
- Time (Mus musculus [6]): 60 min
- inhibition (Mus musculus [11]): Active
- Activity (Mus musculus [7]): 15 mmHg
- Activity (Mus musculus [8]): 8.6 Counts
- Time (Mus musculus [9]): 2.74 min

SMILES: CC1=N/C(=C\c2ccoc2)C(=O)O1
- LD50 [1]: > 500 mg/kg
- Activity (Mus musculus [2]): inactive
- Time (Mus musculus [3]): 8.8 s
- Activity (Mus musculus [4]): inactive
- inhibition (Mus musculus [5]): inactive
- Time (Mus musculus [6]): 15 min
- inhibition (Mus musculus [11]): inactive
- Activity (Mus musculus [7]): inactive
- Activity (Mus musculus [8]): 6 Counts
- Time (Mus musculus [9]): 2.64 min
- Activity (Mus musculus [10]): inactive

SMILES: CN(C)c1ccc(/C=C2\N=C(CCN3CCOCC3)N(c3ccc(O)cc3)C2=O)cc1
- LD50 [1]: > 500 mg/kg
- Activity (Mus musculus [2]): 37 mmHg
- Time (Mus musculus [3]): 2.6 s
- Activity (Mus musculus [4]): 30 bpm
- inhibition (Mus musculus [5]): Active
- Time (Mus musculus [6]): 60 min
- Activity (Mus musculus [7]): 15 mmHg
- Activity (Mus musculus [8]): 4.5 Counts
- Time (Mus musculus [9]): 0.5 min
- Activity (Mus musculus [10]): Active
